From paper PMC8466754, “Esterase-Sensitive Prodrugs of a Potent Bisubstrate Inhibitor of Nicotinamide N-Methyltransferase (NNMT) Display Cellular Activity” (Biomolecules, 2021)

Experiments:
[1] = Ester stability assay in buffer (RP-HPLC); format: physicochemical; settings: for percentage of compound peak area present after 16 h of incubation, PBS: PBS buffer pH 7.4, 16 h; for percentage of compound peak area present after 16 h of incubation, PBS / percentage of compound peak area present after 16 h of incubation, Tris: room temperature, 1 mM compound; for percentage of compound peak area present after 16 h of incubation, Tris: Tris buffer pH 8.4, 16 h; for hydrolytic stability in buffer (in words): PBS pH 7.4 and Tris pH 8.4, over 16 h
Experimental: The prodrugs were evaluated for their stability in both PBS buffer at pH 7.4 and Tris buffer at pH 8.4. The compounds were dissolved in DMSO at a concentration of 40 mM and diluted with the respective buffer to a final concentration of 1 mM. Compounds were tested directly (t0) and subsequently every 2 h over a time period of 16 h by HPLC. Compounds were eluted from a Dr. Maisch ReproSil-Pur C18 column (4.6 × 250 mm, 10 μm particle size, Dr. Maisch, Ammerbuch-Entringen, Germany) with the following solvent system at a flow rate of 0.5 mL/min: solvent A, 0.1% trifluoroacetic acid in water/acetonitrile (95:5); solvent B, 0.1% trifluoroacetic acid in water/acetonitrile (5:95). Gradient elution was as follows: 100:0 (A/B) to 0:100 (A/B) over 8 min, 0:100 (A/B) for 1 min, then reversion back to 100:0 (A/B) over 1 min, 100:0 (A/B) for 2 min. The formation of the parent compound was evaluated and normalized by measuring the peak area at 214 nm and comparing it to the initial timepoint.
All prodrugs prepared were first tested for their inhibitory activity against NNMT using a biochemical enzymatic activity assay. […] Both these buffers and pHs have been used in the different biochemical and cellular assays described in this report. Compounds were dissolved in DMSO at a concentration of 40 mM and diluted with the respective buffer to a final concentration of 1 mM. Compound stability was then assessed by RP-HPLC directly (t0) and subsequently every 2 h over a time period of 16 h. […] Even for the rather labile methyl ester 12b, the TML group in 14b results in a decrease in hydrolysis of the methyl ester.

[2] = biological target: T1, NNMT (Homo sapiens, UniProt P40261); assay: 1-Methylnicotinamide (MNA) quantification in A549 cells (LC-MS); settings: A549 lung carcinoma cells; 0.1–100 µM; 24-h treatment (Figure 4)
T1 sequence (P40261 1-264): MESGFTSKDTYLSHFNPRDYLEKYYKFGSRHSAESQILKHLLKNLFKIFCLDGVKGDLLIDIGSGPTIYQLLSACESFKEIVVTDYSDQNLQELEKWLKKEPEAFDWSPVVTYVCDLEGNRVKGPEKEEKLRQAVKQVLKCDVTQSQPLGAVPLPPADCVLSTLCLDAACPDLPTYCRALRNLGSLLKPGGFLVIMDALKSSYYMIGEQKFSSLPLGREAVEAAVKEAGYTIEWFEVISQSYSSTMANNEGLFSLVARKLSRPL
Experimental: Human lung adenocarcinoma line (A549, ATCC, Manassas, VA, USA) was cultured according to the provider’s indications and seeded in 6-well format. […] After incubation, effluent samples were taken and frozen (−80 °C) for further MNA measurement. Cells also were collected, centrifuged (2 × 500 G/5 min.), and frozen both for the measurement of intracellular MNA and for BCA protein assay.
The quantification of 1-methylnicotinamide (MNA), nicotinamide (NA), nicotinic acid (NicA), 1-methyl-2-pyridone-5-carboxamide (Met-2Pyr), and 1-methyl-4-pyridone-5-carboxamide (Met-4Pyr) was performed by applying ultra-high pressure liquid chromatography coupled to tandem mass spectrometry (UPLC-MS) according to the methodology previously described with minor modifications [35]. A UPLC-MS system comprised of a UPLC Ultimate 3000 (Dionex, Thermo Scientific, Waltham, MA, USA) connected to a TSQ Quantum Ultra mass spectrometer (Thermo Scientific, Waltham, MA, USA) equipped with a heated electrospray ionization interface (HESI-II Probe, Waltham, MA, USA) was used. Chromatographic separation of analytes was carried out on an Aquasil C18 analytical column (4.6 mm × 150 mm, 5 mm; Thermo Scientific, Waltham, MA, USA) under isocratic elution using acetonitrile with 0.1% of formic acid (A) and 5 mM ammonium formate in water (B) as mobile phases delivered at the flow rate of 0.8 mL/min (A:B, 80:20, v/v). The cell pellet was resuspended in 60 µL of deionized water and 50 µL of suspension was transferred to a fresh test tube. An amount of 50 µL of effluent sample was used for the measurement of extracellular MNA. The internal standard (IS) containing MNA-d3 was added to each sample (5 µL) obtaining the final concentration of 500 ng/mL. After the sample mixing, the proteins were precipitated using 100 μL of acidified acetonitrile (0.1% of formic acid), and samples were mixed (10 min), cooled at 4 °C (15 min), and finally centrifuged (15,000× g, 15 min, 4 °C). A clear supernatant was transferred to a chromatographic vial and directly injected (5 µL) into UPLC-MS system. […] The concentration of MNA was calculated based on the calibration curve plotted for the analyte as the relationship between the peak area ratios of analyte/IS to the nominal concentration of the analyte. The concentration of analytes was normalized to milligram of proteins, which was assessed using a Pierce^TM BCA Protein Assay Kit (Thermo Fisher, Waltham, MA, USA) and a Synergy4 multiplate reader (BioTek, Winooski, VT, USA). […]
Using this assay, the levels of MNA produced by NNMT in an A549 lung carcinoma cell line can be quantified by means of a sensitive LC-MS method.

[3] = test system: T24 human bladder cancer cell line; assay: MTT cell viability assay, T24; format: cell-based
Experimental: (§1) HSC-2 human oral cancer cell line, T24 human bladder cancer cell line, and A549 human lung cancer line were cultured in DMEM/F12 medium and supplemented with 10% fetal bovine serum and 50 μg/mL gentamicin at 37 °C in a humidified 5% CO2 incubator. For each compound tested, powder was dissolved in DMSO at 100 mM concentration. This stock solution was then diluted in culture medium to final concentration values ranging between 1 µM and 100 µM. For each sample, DMSO was kept constant at 0.1% final concentration. The day before starting treatment, cells were seeded in 96-well plates, at a density of 2000 cells/well. Cells were allowed to attach overnight and then incubated with compounds at different concentrations, or with DMSO only, for 24, 48, and 72 h. All experiments were performed in triplicate.
(§2) Cell proliferation was determined using a colorimetric assay with 3-(4,5-dimethylthiazol-2-yl)-2,5-diphenyl tetrazolium bromide (MTT). The MTT assay measures the conversion of MTT to insoluble formazan by dehydrogenase enzymes of the intact mitochondria of living cells. Cell proliferation was evaluated by measuring the conversion of the tetrazolium salt MTT to formazan crystals upon treatment with compounds or DMSO only for 24, 48, and 72 h. Briefly, cells were incubated for 2 h at 37 °C with 100 µL fresh culture medium containing 5 µL of MTT reagent (5 mg/mL in PBS). The medium was removed and 200 µL isopropanol were added. The amount of formazan crystals formed correlated directly with the number of viable cells. The reaction product was quantified by measuring the absorbance at 540 nm using a plate reader. Experiments were repeated three times. Results were expressed as a percentage of the control (the control equals 100% and corresponds to the absorbance value of each sample at time zero) and presented as mean values ± standard deviation of three independent experiments performed in triplicate.

[4] = test system: HSC-2 human oral cancer cell line; assay: MTT cell viability assay, HSC-2; format: cell-based
Experimental: as §1, §2

[5] = test system: pig liver esterase (PLE); assay: Esterase-mediated hydrolysis to the parent compound (RP-HPLC); format: in vitro ADME
Experimental: The conversion of the prodrugs to the parent compound by esterases was evaluated using pig liver esterase (PLE, 18 U/mg, Sigma-Aldrich, St. Louis, MO, USA) in PBS at pH 7.4. Compounds were dissolved in DMSO at 40 mM, diluted to a final concentration of 2 mM with PBS, and added to an equal volume of a 10 mg/mL solution of PLE in PBS (pH 7.4), resulting in final concentrations of 2.5% DMSO, 1 mM compound, and 5 mg/mL PLE. At different time-points 50 µL aliquots were taken, added to 100 µL acetonitrile to precipitate the proteins, and centrifuged for 5 min at 10,000 rpm. The supernatant was subsequently analyzed by HPLC as described in Section 2.2 above.
The next step was to establish whether compounds 12e and 14e are converted to the parent compound in the presence of an esterase.

[6] = test system: A549 human lung cancer line; assay: MTT cell viability assay, A549; format: cell-based
Experimental: as §1, §2

COC(=O)[C@@H](N)CCN(C/C=C/c1ccc(C#N)cc1)C[C@H]1O[C@@H](n2cnc3c(N)ncnc32)[C@H](O)[C@@H]1O [Compound 12b, Methyl-(S)-2-amino-4-((((2R,3S,4R,5R)-5-(6-amino-9H-purin-9-yl)-3,4-dihydroxy-tetrahydrofuran-2-yl)methyl)((E)-3-(4-cyanophenyl)allyl)amino)butanoate]
percentage of compound peak area present after 16 h of incubation, PBS [1]: 36.97%
percentage of compound peak area present after 16 h of incubation, Tris [1]: 22.59%

CC(=O)Oc1cc(C)cc(C)c1C(C)(C)CC(=O)N[C@@H](CCN(C/C=C/c1ccc(C#N)cc1)C[C@H]1O[C@@H](n2cnc3c(N)ncnc32)[C@H](O)[C@@H]1O)C(=O)OC(C)C [Compound 14e, Isopropyl-(S)-2-(3-(2-acetoxy-4,6-dimethylphenyl)-3-methylbutanamido)-4-((((2R,3S,4R,5R)-5-(6-amino-9H-purin-9-yl)-3,4-dihydroxytetrahydrofuran-2-yl)methyl)((E)-3-(4-cyanophenyl)allyl)amino)butanoate]
percentage of compound peak area present after 16 h of incubation, PBS [1]: 91.13%
hydrolytic stability in buffer (in words) [1]: most stable
percentage of compound peak area present after 16 h of incubation, Tris [1]: 87.69%
effect on cellular MNA levels [2]: even further enhanced
effect on cell viability (MTT) ([3]; 100 µM, 24, 48 and 72 h): time dependent reduction in cell viability
effect on cell viability (MTT) ([3]; 1 and 10 µM, 24, 48 and 72 h): no effects
effect on cell viability (MTT) ([4]; 100 µM, 24, 48 and 72 h): time dependent reduction in cell viability
effect on cell viability (MTT) ([4]; 1 and 10 µM, 24, 48 and 72 h): no effects
time to full conversion to the parent compound ([5]; 5 mg/mL PLE, PBS pH 7.4, 1 mM compound): ≤ 4 h
hydrolysis in the absence of PLE ([5]; PBS pH 7.4, without PLE): no hydrolysis was observed
effect on cell viability (MTT) ([6]; 100 µM, 24, 48 and 72 h): time dependent reduction in cell viability
effect on cell viability (MTT) ([6]; 1 and 10 µM, 24, 48 and 72 h): no effects

CCOC(=O)[C@H](CCN(C/C=C/c1ccc(C#N)cc1)C[C@H]1O[C@@H](n2cnc3c(N)ncnc32)[C@H](O)[C@@H]1O)NC(=O)CC(C)(C)c1c(C)cc(C)cc1OC(C)=O [Compound 14c, Ethyl-(S)-2-(3-(2-acetoxy-4,6-dimethylphenyl)-3-methylbutanamido)-4-((((2R,3S,4R,5R)-5-(6-amino-9H-purin-9-yl)-3,4-dihydroxytetrahydrofuran-2-yl)methyl)((E)-3-(4-cyanophenyl)allyl)amino)butanoate]
percentage of compound peak area present after 16 h of incubation, PBS [1]: 90.44%
percentage of compound peak area present after 16 h of incubation, Tris [1]: 87.00%

N#Cc1ccc(/C=C/CN(CC[C@H](N)C(=O)OCc2ccccc2)C[C@H]2O[C@@H](n3cnc4c(N)ncnc43)[C@H](O)[C@@H]2O)cc1 [Compound 12f, Benzyl-(S)-2-amino-4-((((2R,3S,4R,5R)-5-(6-amino-9H-purin-9-yl)-3,4-dihydroxy-tetrahydrofuran-2-yl)methyl)((E)-3-(4-cyanophenyl)allyl)amino)butanoate]
percentage of compound peak area present after 16 h of incubation, PBS [1]: 33.43%
hydrolytic stability in buffer (in words) [1]: least stable
percentage of compound peak area present after 16 h of incubation, Tris [1]: 21.60%

CNc1ccc(C(N)=O)cn1 [Compound 6-MANA, 6-methylamino-nicotinamide, reference compound]
effect on cellular MNA levels [2]: high concentrations of both 6-MANA and GYZ-319 are required to substantially decrease the levels of MNA
effect on cell viability (MTT) ([3]; 100 µM, 24, 48 and 72 h): no effect
effect on cell viability (MTT) ([3]; 1 and 10 µM, 24, 48 and 72 h): no effects
effect on cell viability (MTT) ([4]; 100 µM, 24, 48 and 72 h): no effect
effect on cell viability (MTT) ([4]; 1 and 10 µM, 24, 48 and 72 h): no effects
effect on cell viability (MTT) ([6]; 100 µM, 24, 48 and 72 h): no effect
effect on cell viability (MTT) ([6]; 1 and 10 µM, 24, 48 and 72 h): no effects

CCCOC(=O)[C@H](CCN(C/C=C/c1ccc(C#N)cc1)C[C@H]1O[C@@H](n2cnc3c(N)ncnc32)[C@H](O)[C@@H]1O)NC(=O)CC(C)(C)c1c(C)cc(C)cc1OC(C)=O [Compound 14d, Propyl-(S)-2-(3-(2-acetoxy-4,6-dimethylphenyl)-3-methylbutanamido)-4-((((2R,3S,4R,5R)-5-(6-amino-9H-purin-9-yl)-3,4-dihydroxytetrahydrofuran-2-yl)methyl)((E)-3-(4-cyanophenyl)allyl)amino)butanoate]
percentage of compound peak area present after 16 h of incubation, PBS [1]: 90.30%
percentage of compound peak area present after 16 h of incubation, Tris [1]: 87.52%

CCCOC(=O)[C@@H](N)CCN(C/C=C/c1ccc(C#N)cc1)C[C@H]1O[C@@H](n2cnc3c(N)ncnc32)[C@H](O)[C@@H]1O [Compound 12d, Propyl-(S)-2-amino-4-((((2R,3S,4R,5R)-5-(6-amino-9H-purin-9-yl)-3,4-dihydroxy-tetrahydrofuran-2-yl)methyl)((E)-3-(4-cyanophenyl)allyl)amino)butanoate]
percentage of compound peak area present after 16 h of incubation, PBS [1]: 71.96%
percentage of compound peak area present after 16 h of incubation, Tris [1]: 61.32%

CCOC(=O)[C@@H](N)CCN(C/C=C/c1ccc(C#N)cc1)C[C@H]1O[C@@H](n2cnc3c(N)ncnc32)[C@H](O)[C@@H]1O [Compound 12c, Ethyl-(S)-2-amino-4-((((2R,3S,4R,5R)-5-(6-amino-9H-purin-9-yl)-3,4-dihydroxytetrahydrofuran-2-yl)methyl)((E)-3-(4-cyanophenyl)allyl)amino)butanoate]
percentage of compound peak area present after 16 h of incubation, PBS [1]: 68.36%
percentage of compound peak area present after 16 h of incubation, Tris [1]: 54.84%

COC(=O)[C@H](CCN(C/C=C/c1ccc(C#N)cc1)C[C@H]1O[C@@H](n2cnc3c(N)ncnc32)[C@H](O)[C@@H]1O)NC(=O)CC(C)(C)c1c(C)cc(C)cc1OC(C)=O [Compound 14b, Methyl-(S)-2-(3-(2-acetoxy-4,6-dimethylphenyl)-3-methylbutanamido)-4-((((2R,3S,4R,5R)-5-(6-amino-9H-purin-9-yl)-3,4-dihydroxytetrahydrofuran-2-yl)methyl)((E)-3-(4-cyanophenyl)allyl)amino)butanoate]
percentage of compound peak area present after 16 h of incubation, PBS [1]: 88.08%
percentage of compound peak area present after 16 h of incubation, Tris [1]: 73.88%
